In US20250282720A1, “ALKYLSULFENYL THIOCARBONATES: PRECURSORS TO HYDROPERSULFIDES POTENTLY ATTENUATE OXIDATIVE STRESS” (The Johns Hopkins University, priority 2021, published 2025):

Experiments:
[1] = test system: FA skin fibroblasts (GM04078); experiment: Cytotoxicity in FA skin fibroblasts; conditions: 24 h of exposure, at least up to 100 μM
Description: (§1) Initially, we measured the cytotoxicity of AST in FA skin fibroblasts (GM04078), obtained from the Coriell Institute, to ensure that the RSSH donor itself is not cytotoxic. […] We then measured the ability of AST to confer cytoprotection in FA fibroblasts against hydrogen peroxide (H2O2) stress.

[2] = test system: H9c2 cardiac myoblasts; experiment: Cytotoxicity study, Sytox Green viability assay; conditions: up to 100 mM, 24 h
Method: (§2) H9c2 embryonic rat heart myoblasts were obtained from the American Type Culture Collection. Cells were grown in Dulbecco's minimal essential medium (DMEM), supplemented with fetal bovine serum (FBS) 10%, penicillin 100 U/mL and streptomycin 100 μg/mL. They were propagated in T75-flasks, split before reaching 70-80% confluence (usually every day or every second day), and used within 11 passages. Cells were passaged to tissue culture treated 96-well microtiter plates at the specified density in 180 μL volumes and incubated for 24 h.
Cells were seeded at a density of 1×10^4 cells/well. After 24 h, the media was replaced and compound added in 20 μL volumes using DMSO:H2O (<0.01% DMSO) as the vehicle. Cells were incubated for an additional 24 h before media was removed. Then, 100 μL of media containing 3 μM Sytox Green nucleic acid stain (Invitrogen) was added and the cells were incubated for 2 h before fluorescence readings were obtained at 485Ex/538Em (Step 1). Finally, an additional 100 μL of media containing 3 μM Sytox and 0.2% Triton X-100 was added to permeabilize all cells and incubated for 1 h before fluorescence values measured (Step 2). The relative % cells surviving was calculated as a 100% minus the ratio of the fluorescence value of Step 1 over Step 2 (% cells surviving=100%−(FL538 (Step 1)/FL538 (Step 2)). See FIG. 8.

[3] = test system: H9c2 cardiac myoblasts; experiment: H9c2 cell protection from H2O2-mediated oxidative stress, CCK-8; format: cell-based, rat; conditions: 50 μM, 4 and 8 h, then H2O2 200 μM
Method: The cytoprotective effects of 1a was then measured against oxidative stress.
as §2
Cells were seeded at a density of 5×10^3 cells/well. After 24 h, precursor 1a or by-product 4a was added at 20 μL volumes using DMSO:H2O (<0.01% DMSO as the vehicle). Cells were incubated for 2 h before media was removed and the cells gently washed with PBS (pH 7.4). Then, 180 μL of fresh media and 20 μL H2O2 diluted into H2O were added and cells were incubated for an additional 2 h. At the completion of H2O2 exposure, each well is carefully washed 3 times with PBS (pH 7.4) before adding 100 μL of media, without-FBS, containing 10% v/v CCK-8 (Dojindo) and incubated for 3 h prior to obtaining absorbance values at 450 nm. The relative % viability was calculated as 100 times the ratio of the Abs450 (pre-treated, H2O2-exposed) over Abs450 (vehicle-treated, non H2O2-exposed).

[4] = test system: FA fibroblasts (GM04078); experiment: Cytoprotection against H2O2 stress in FA fibroblasts, CCK8; format: cell-based, human; conditions: 4 h pretreatment, H2O2 75 μM for 4 h
Method: FIG. 10A, pretreatment of AST with varying concentrations in FA fibroblasts (GM04078, Coriell Institute) for 4 h followed by 4 h treatment with H2O2. Viability was measured using CCK8 assay. FIG. 10B, pretreatment of AST with varying concentrations in FA fibroblasts for 4 h followed by treatment with erastin for 24 h. […] Group comparisons are determined by a one-way analysis of variance (ANOVA) with Dunnet's correction post-hoc test using GraphPad Prism 8;
as §1

[5] = Decomposition of precursors in the presence of thiol (NAC / N-acetyl cysteine methyl ester), HPLC; format: physicochemical; conditions: 5 equiv NAC, PBS pH 7.4, HPLC
Method: Initially, the decomposition of 1a was analyzed in the presence of 5 equiv of N-acetylcysteine (NAC) in PBS (pH 7.4) by HPLC. […] To investigate the mechanism, this reaction was monitored by UPLC-MS. […] Additionally, a small amount of unsymmetrical dialkyl polysulfide (pink highlight, R^1SSnSR^2, n=0-3) is observed, likely formed via NAC reaction with symmetrical dialkyl polysulfides (Scheme 1-5, eq. 7). As expected, a new peak at 5.65 min corresponding to N-acetyl cysteine-thiocarbonate 9a also is observed, confirming thiol attack at the perthiocarbonate carbonyl carbon of 1a to release RSSH. Due to the unstable nature of RSSH under these experimental conditions, the yield of the by-product 9a was measured as an indication of RSSH yield. The observation of RSSH-derived polysulfides formation as major products led us to anticipate the efficient formation of by-product 9a. […] The lower observed yield of 9a is likely due to its further reaction with RSSH under these conditions. […]
To a solution of N-acetyl cysteine methyl ester (500 μM) in pH 7.4 phosphate buffer saline (100 mM) containing DTPA (100 μM), precursor 1a or 8 (100 μM) was added. […] At different time points, an aliquot of the reaction mixture (500 μL) was withdrawn and transferred to pre-cooled 0.1% formic acid (500 μL) and analyzed using HPLC. […]

Row | SMILES | toxicity toward FA fibroblasts [1] | toxicity toward H9c2 cells [2] | cytoprotection against H2O2-mediated toxicity (by-product control) [3] | cytoprotection against H2O2 stress [4] | t1/2 of decomposition in the presence of thiol [5] [min]
1 | Oc1ccccc1 [Precursor 4a, phenol] | do not show toxicity | no toxicity | no protective effect | ineffective | –
2 | COC(=O)C(NC(C)=O)C(C)(C)SSC(=O)OCc1ccccc1 (centres unmarked) [Precursor 8, Methyl 2-acetamido-3-(((benzyloxy)carbonyl)disulfaneyl)-3-methylbutanoate] | – | – | – | – | 4.0 ± 0.7
